This note sets out measurements from the NIST ThermoML archive (doi:10.1016/j.fluid.2011.01.012).

The conditions of series [1]: Liquid; for mass density: 293.15 K, 101.33 kPa, Vibrating tube method; for Normal boiling temperature: Fischer Boiling Piont Apparatus.
Series [2] in a line: refractive index (Na D-line) (dimensionless). Conditions: 293.15 K; 101.33 kPa; Liquid; Standard Abbe refractometry.

Numbers after ± are expanded uncertainties.

For the molecule `CCOC(=O)CCC(=O)OCC` [diethyl butanedioate], in series [1], the mass density (usually mass per unit of volume) was found to be 1040.22 ± 0.36 kg/m3 and the Normal boiling temperature was 217.7 ± 1 °C. The refractive index (as a rule, a measure of how strongly the sample bends light) in series [2] turned out to be 1.42014 ± 0.00039.
The corresponding values for `CCOC(=O)CCCC(=O)OCC` [diethyl glutarate] are 1022.04 ± 0.92 kg/m3, 236.5 ± 1 °C and 1.42414 ± 0.00052.
The corresponding values for `CCOC(=O)CCCCC(=O)OCC` [diethyl hexanedioate] are 1007.63 ± 0.34 kg/m3, 245.1 ± 1 °C and 1.42725 ± 0.00039.
Take `O` [water]: in series [1], the mass density was 999.9 ± 0.24 kg/m3 and the Normal boiling temperature was found to be 100.1 ± 1 °C. The refractive index in series [2] turned out to be 1.3324 ± 0.00033.
